Results as given in patent US7932261B2, “Macrocycle derivatives useful as inhibitors of β-secretase (BACE)” (Janssen Pharmaceutica NV, priority 2006, dated 2011).
Read-outs that look alike come from different tables or passages of the source. Values belong to the compound of their own block, whether it stands above or below them.

Tests used:
Assay type in all cases: biochemical
[1] = target: T1, β-secretase (BACE) (Homo sapiens, UniProt P56817); assay: in vitro BACE FS1 % Inhibition Assay (Example 13); conditions: FS1 substrate, pH 5; for inhibition at 0.3 µM: read-out: % Inhibition (Example 13) @ 0.3 μM; for inhibition at 0.3 µM / % Inhibition (Example 13) @ 0.3 μM: 0.3 μM compound; for inhibition at 1 µM: read-out: % Inhibition (Example 13) @ 1 μM; for inhibition at 1 µM / % Inhibition (Example 13) @ 1 μM: 1 μM compound; for inhibition at 3 µM: read-out: % Inhibition (Example 13) @ 3 μM; for inhibition at 3 µM / % Inhibition (Example 13) @ 3 μM: 3 μM compound
T1 construct: purchased Panvera
Experimental: (§1) The following assay buffers were prepared and used in this assay: (1) enzyme assay buffer (0.05 M sodium acetate, pH5, 0.1% PEG8000 (w/v)), (2) substrate assay buffer (0.05 M sodium acetate, pH5), and (3) compound vehicle (30% DMSO in 50 mM HEPES, pH 7.4).
(§2) The FS1-substrate stock solution was prepared in DMSO as a 10 mg/mL solution. The FS1-substrate working solution was prepared by diluting the 10 mg/mL stock solution with substrate assay buffer to a final concentration of 300 μg/mL. The α-secretase (BACE) working solution was prepared by diluting a 0.83 mg/mL BACE stock solution with enzyme assay buffer to a final concentration of 4 μg/mL.
Test compounds were dissolved in DMSO to 10 mM.
(§3) The screening procedure for this assay was as follows: 15 μL of BACE working solution was pipetted into each well of a 96-well plate. To each well was then pipetted 2 μL of test compound at the selected concentration. Test compound and BACE were then mixed with a pipettor and incubated for 20 min at room temperature. To each well was then added 10 µL of the FS1 substrate working solution. The plates were then incubated for 1 hour at room temperature.
The procedure for the blank (negative control) was as follows. 15 μL of assay buffer was pipetted into each well to be used as a blank control. To each well was then added 2 μL of vehicle and 10 μL of FS1-substrate working solution. The plates were then incubated for 1 hour at room temperature.
(§4) The procedure for the positive control was as follows: 15 μL of BACE working solution was pipetted into each well to be used as a positive control. To each well was then pipetted 2 μL of vehicle. Vehicle and BACE were then mixed with a pipettor and incubated for 20 min at room temperature. To each well was then added 10 μL of the FS1 substrate working solution. The plates were then incubated for 1 hour at room temperature.
For test compounds, % inhibition was determined at each concentration as follows: […]

[2] = target: T1, β-secretase (BACE); assay: in vitro BACE Assay, Ki (Example 14)
Experimental: as §1
as §2, with “β-secretase” for “α-secretase”
Test compounds were dissolved in DMSO at 10 mM.
as §3, with “The” for “The screening”, “μL” for “µL”, “solution.” for “solution. The plates were then incubated for 1 hour at room temperature.”
as §4, with “solution.” for “solution. The plates were then incubated for 1 hour at room temperature.”
For test compounds, Ki inhibition was determined as follows: For each compound concentration and positive control, rate of cleavage of substrate (Vi, where i=compound concentration in μM) was determined as Δ Fluorescence/Δ time (min). Cleavage rates (Vi) were plotted as a function of inhibitor concentration in μM [I]. The Ki was then determined by fitting the following equation to the graph of [I] vs. Vi Y=aVmax/(50+24*(1+X/Ki)),

[3] = target: human BACE-1 (Homo sapiens, UniProt P56817); assay: in vitro BACE Assay run by CEREP (Example 15); conditions: for inhibition at 0.3 µM / % Inhibition 0.3 μM: 0.3 μM compound; for inhibition at 1 µM: 1 μM compound
Experimental: More specifically the assay, run at 50 μL in a 96 well plate, evaluated the effect of test compound on the activity of the human BACE-1 quantified by measuring the formation of Mca-S-E-V—N-L-NH2 from Mca-S-E-V—N-L-D-A-E-F—R—K(Dnp)-R—R—NH2, using a recombinant enzyme.
The test compound, reference compound or water (control) was added to a buffer containing 0.09 M sodium acetate (pH 4.5) and 0.25 μg BACE-1. Compound interference with the fluorimetric detection method due to autofluorescence was then checked by measurements at the wavelengths defined to evaluate the enzyme activity. […] For control basal measurement, the substrate was omitted from the reaction mixture. […] The standard inhibitory reference compound was OM99-2, which was tested in each experiment at several concentrations to obtain an inhibition curve from which its IC50 value was calculated.

[4] = recombinant enzyme, pH 4.5, 60 min at 37° C.
[5] = recombinant enzyme, pH 4.5, 60 min at 37° C., read-out: IC50

T1 sequence (P56817 46-501): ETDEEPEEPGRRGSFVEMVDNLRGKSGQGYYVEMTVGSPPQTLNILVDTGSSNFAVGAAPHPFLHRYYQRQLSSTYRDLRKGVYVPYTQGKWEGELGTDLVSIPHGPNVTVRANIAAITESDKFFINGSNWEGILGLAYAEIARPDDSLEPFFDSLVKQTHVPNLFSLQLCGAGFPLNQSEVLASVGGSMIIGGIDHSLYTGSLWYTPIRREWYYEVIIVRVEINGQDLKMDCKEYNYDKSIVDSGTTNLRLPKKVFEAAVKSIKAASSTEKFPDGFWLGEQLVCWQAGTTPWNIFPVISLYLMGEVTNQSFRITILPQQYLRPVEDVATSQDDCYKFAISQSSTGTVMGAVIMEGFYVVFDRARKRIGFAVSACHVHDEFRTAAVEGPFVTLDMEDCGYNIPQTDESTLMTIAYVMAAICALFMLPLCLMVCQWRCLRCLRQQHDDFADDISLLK
human BACE-1, sequence (P56817 46-501): as above

- inhibition at 0.3 µM [1]: 25%
- inhibition at 1 µM [1]: 48%
- inhibition at 3 µM [1]: 83%
- Ki [2]: 750 nM
Compound: CCOC(=O)C1CCC(N2CCc3cccc(c3)Oc3ccc4c(c3)CN(C(N)=N4)C(C(C)C)CCC2=O)CC1 (stereo not shown) [Compound 22]

- inhibition at 0.3 µM [1]: 106%
- inhibition at 1 µM [1]: 108%
- inhibition at 3 µM [1]: 114%
- Ki [2]: 13 nM
Compound: CC(C)[C@@H]1CCC(=O)N([C@H]2CC[C@@H](C(=O)O)CC2)CCc2cccc(c2)Oc2ccc3c(c2)CN1C(N)=N3 [Compound 23]

- inhibition at 0.3 µM [1]: 27%
- inhibition at 1 µM [1]: 43%
- inhibition at 3 µM [1]: 77%
- Ki [2]: 420 nM
Compound: CC(C)[C@@H]1CCC(=O)N([C@H]2CC[C@H](C(=O)O)CC2)CCc2cccc(c2)Oc2ccc3c(c2)CN1C(N)=N3 [Compound 24]

- % Inhibition (Example 13) @ 0.3 μM [1]: −8%
- % Inhibition (Example 13) @ 1 μM [1]: 23%
- % Inhibition (Example 13) @ 3 μM [1]: 58%
Compound: CC(C)C1CCC(=O)N(C2CCC(O)CC2)CCc2cccc(c2)Oc2ccc3c(c2)CN1C(N)=N3 (stereo not shown) [Compound 26]

- % Inhibition (Example 13) @ 0.3 μM [1]: 4%
- % Inhibition (Example 13) @ 1 μM [1]: 59%
- % Inhibition (Example 13) @ 3 μM [1]: 110%
Compound: CCOC(=O)C1CCC(N2CCc3cccc(c3)Oc3ccc4c(c3)CN(C(N)=N4)[C@H](C(C)C)CCC2=O)CC1 (stereo partly shown) [Compound 28]

- inhibition at 0.3 µM [1]: 120%
- inhibition at 1 µM [1]: 116%
- inhibition at 3 µM [1]: 125%
Compound: NC1=Nc2ccc3cc2CN1[C@H](C1CCCCC1)CCC(=O)N([C@H]1CC[C@@H](C(=O)O)CC1)CCc1cccc(c1)O3 [Compound 29]

- % Inhibition (Example 13) @ 0.3 μM [1]: 14%
- % Inhibition (Example 13) @ 1 μM [1]: 16%
- % Inhibition (Example 13) @ 3 μM [1]: −15%
Compound: CC(C)[C@@H]1CCC(=O)Nc2ccc3ccc(cc3c2)Oc2ccc3c(c2)CN1C(N)=N3 [Compound 31]

- IC50 [3]: 55 nM
- inhibition at 0.3 µM [3, 4]: 99%
Compound: NC1=Nc2cnc3cc2CN1[C@H](C1CCCCC1)CCC(=O)N(C1CCCCC1)CCc1cccc(c1)O3 [Compound 32]

- % Inhibition 0.3 μM [3, 4]: 15%
Compound: NC1=Nc2cnc3cc2CN1C(C1CCCCC1)CCC(=O)N(C1CCC(C(=O)O)CC1)CCc1cccc(c1)O3 (stereo not shown) [Compound 33]

- inhibition at 0.3 µM [3, 4]: 86%
- IC50 [3, 5]: 210 nM
Compound: NC1=Nc2cnc3cc2CN1[C@H](C1CCCCC1)CCC(=O)N([C@H]1CC[C@@H](O)CC1)CCc1cccc(c1)O3 [Compound 34]

- inhibition at 0.3 µM [3, 4]: 93%
- IC50 [3, 5]: 83 nM
Compound: NC1=Nc2ccc3cc2CN1[C@H](C1CCCCC1)CCC(=O)N([C@H]1CC[C@@H](O)CC1)CCc1cccc(c1)O3 [Compound 35]

- % Inhibition 0.3 μM [3, 4]: 74%
- IC50 [3, 5]: 150 nM
Compound: CC(C)[C@@H]1CCC(=O)N(C2CCCCC2)C2CCc3ccc(cc32)Oc2ccc3c(c2)CN1C(N)=N3 (stereo partly shown) [Compound 36]

- inhibition at 0.3 µM [3, 4]: 100%
- IC50 [3, 5]: 70 nM
Compound: NC1=Nc2cnc3cc2CN1[C@H](C1CCCCC1)CCC(=O)N(C1CCCC1)CCc1cccc(c1)O3 [Compound 37]

- inhibition at 0.3 µM [3, 4]: 97%
- IC50 [3, 5]: 67 nM
Compound: NC1=Nc2cnc3cc2CN1[C@H](C1CCCCC1)CCC(=O)N(CC1CC1)CCc1cccc(c1)O3 [Compound 38]

Compound: Nc1nc2ccc3cc2cc1C(C1CCCCC1)C/C=C/C(=O)N(C1CCCCC1)CCc1cccc(c1)O3 (stereo not shown) [Compound 39]
- inhibition at 1 µM [3, 4]: 53%
- IC50 [3, 5]: 810 nM

- inhibition at 1 µM [3, 4]: 13%
Compound: Nc1nc2ccc3cc2cc1C(C1CCCCC1)CCCC(=O)N(C1CCCCC1)CCc1cccc(c1)O3 (stereo not shown) [Compound 40]
